Results taken from ChEMBL document CHEMBL6127016, “Design and synthesis of dual functional NBD-fluorophore-incorporated naphthalene diimide derivatives as G-quadruplex ligands” (Bioorg Med Chem Lett, 2024).
pIC50, pKd: −log10 of the molar value. The source made the active and inactive calls. The rule behind the calls is not given here.

Legend:
MIA PaCa-2 = assay: Cytotoxicity against human MIA PaCa-2 cells assessed as inhibition of cell growth by CellTiter-Glo assay; format: functional, cell-based
Quadruplex DNA [1] = assay: Binding affinity to human telomeric G-quadruplex HT21 DNA assessed as increase in fluorescence intensity at 5 uM by fluorescence emission spectra analysis; format: nucleic-acid assay
Quadruplex DNA [2] = assay: Binding affinity to human telomeric G-quadruplex HT21 DNA assessed as dissociation constant by fluorescence titration spectra analysis; format: nucleic-acid assay
Quadruplex DNA [3] = assay: Binding affinity to human telomeric G-quadruplex HT21 DNA assessed as increase in CD signal at 15 uM at 235 nm wavelength by circular dichroism spectroscopic analysis; format: nucleic-acid assay
Quadruplex DNA [4] = assay: Binding affinity to human telomeric G-quadruplex HT21 DNA assessed as increase in CD signal at 15 uM at 250 nm wavelength by circular dichroism spectroscopic analysis; format: nucleic-acid assay
Quadruplex DNA [5] = assay: Binding affinity to human telomeric G-quadruplex HT21 DNA assessed as increase in CD signal at 15 uM at 290 nm wavelength by circular dichroism spectroscopic analysis; format: nucleic-acid assay

Structure (SMILES) | pIC50 (MIA PaCa-2) | Activity (Quadruplex DNA [1]) | pKd (Quadruplex DNA [2]) | Activity (Quadruplex DNA [3]) | Activity (Quadruplex DNA [4]) | Activity (Quadruplex DNA [5])
O=C1c2ccc3c4c(c(NCCN5CCCC5)cc(c24)C(=O)N1CCCN1CCOCC1)C(=O)N(CCCN1CCOCC1)C3=O | 8.02 |  |  |  |  | 
O=C1c2ccc3c4c(c(NCC5CCN(c6ccc([N+](=O)[O-])c7nonc67)CC5)cc(c24)C(=O)N1CCCN1CCOCC1)C(=O)N(CCCN1CCOCC1)C3=O | 6.44 | inactive |  |  |  | 
O=C(CNc1cc2c3c(ccc4c3c1C(=O)N(CCCN1CCOCC1)C4=O)C(=O)N(CCCN1CCOCC1)C2=O)NCC1CCN(c2ccc([N+](=O)[O-])c3nonc23)CC1 | 6.44 | Active | 6.22 |  |  | 
O=C1c2ccc3c4c(c(NCCN5CCN(c6ccc([N+](=O)[O-])c7nonc67)CC5)cc(c24)C(=O)N1CCCN1CCOCC1)C(=O)N(CCCN1CCOCC1)C3=O | 7.11 | Active | 5.76 | inactive | inactive | Active
